Source: ChEMBL document CHEMBL1126769, “Synthesis and kappa-opioid antagonist selectivity of a norbinaltorphimine congener. Identification of the address moiety required for kappa-antagonist activity” (J Med Chem, 1993)

Assays:
[1] = biological target: Opioid receptors; delta & kappa (Homo sapiens) (UniProt P41145+P41143); assay: Selectivity ratio between kappa-opioid receptor to delta-opioid receptor; type: protein assay
[2] = biological target: Kappa-type opioid receptor (Cavia porcellus, UniProt P41144); assay: Inhibitory activity against kappa-opioid receptor in guinea pig ileum longitudinal muscle using ethylketazocine; type: tissue-based
Sequence of Kappa-type opioid receptor (P41144 whole entry): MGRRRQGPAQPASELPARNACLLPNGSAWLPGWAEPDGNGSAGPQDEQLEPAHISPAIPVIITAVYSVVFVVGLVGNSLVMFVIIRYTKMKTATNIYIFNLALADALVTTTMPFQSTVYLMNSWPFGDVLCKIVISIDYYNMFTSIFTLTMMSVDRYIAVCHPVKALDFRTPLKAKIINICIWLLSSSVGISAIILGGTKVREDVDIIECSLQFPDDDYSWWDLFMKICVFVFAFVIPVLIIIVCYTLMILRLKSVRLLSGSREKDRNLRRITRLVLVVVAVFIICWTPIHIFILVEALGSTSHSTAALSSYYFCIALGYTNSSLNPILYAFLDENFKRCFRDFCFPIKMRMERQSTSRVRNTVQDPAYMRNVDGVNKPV

[3] = biological target: Opioid receptors; mu & kappa (Homo sapiens) (UniProt P41145+P35372); assay: Selectivity ratio between kappa-opioid receptor to mu-opioid receptor; type: protein assay
Sequence of Opioid receptors; mu & kappa (Homo sapiens) (P35372 whole entry, looked up): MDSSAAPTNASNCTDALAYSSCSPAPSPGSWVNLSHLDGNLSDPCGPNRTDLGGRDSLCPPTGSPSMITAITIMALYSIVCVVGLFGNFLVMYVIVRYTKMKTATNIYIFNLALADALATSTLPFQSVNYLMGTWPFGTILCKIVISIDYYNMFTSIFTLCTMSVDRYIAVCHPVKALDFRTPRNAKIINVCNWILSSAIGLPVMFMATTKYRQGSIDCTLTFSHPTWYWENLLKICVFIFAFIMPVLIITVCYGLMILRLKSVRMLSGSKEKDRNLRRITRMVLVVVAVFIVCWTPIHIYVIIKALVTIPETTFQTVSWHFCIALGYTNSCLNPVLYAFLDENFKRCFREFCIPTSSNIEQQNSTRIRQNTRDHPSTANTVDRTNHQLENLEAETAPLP
Sequence of Opioid receptors; mu & kappa (Homo sapiens) (P41145 whole entry, looked up): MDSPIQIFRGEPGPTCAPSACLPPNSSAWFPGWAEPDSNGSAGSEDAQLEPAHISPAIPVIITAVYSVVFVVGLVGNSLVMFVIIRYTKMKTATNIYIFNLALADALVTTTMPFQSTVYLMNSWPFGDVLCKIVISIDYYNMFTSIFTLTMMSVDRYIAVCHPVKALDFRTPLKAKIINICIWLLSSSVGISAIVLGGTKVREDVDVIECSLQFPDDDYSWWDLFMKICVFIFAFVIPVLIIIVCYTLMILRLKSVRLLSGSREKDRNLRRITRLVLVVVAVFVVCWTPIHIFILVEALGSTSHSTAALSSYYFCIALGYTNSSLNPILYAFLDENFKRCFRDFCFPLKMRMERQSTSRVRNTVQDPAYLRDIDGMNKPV

[4] = biological target: Delta-type opioid receptor (Mus musculus, UniProt P32300); assay: Inhibitory activity against delta-opioid receptor in mouse vas deferens preparation using DADLE
Sequence of Delta-type opioid receptor (P32300 whole entry): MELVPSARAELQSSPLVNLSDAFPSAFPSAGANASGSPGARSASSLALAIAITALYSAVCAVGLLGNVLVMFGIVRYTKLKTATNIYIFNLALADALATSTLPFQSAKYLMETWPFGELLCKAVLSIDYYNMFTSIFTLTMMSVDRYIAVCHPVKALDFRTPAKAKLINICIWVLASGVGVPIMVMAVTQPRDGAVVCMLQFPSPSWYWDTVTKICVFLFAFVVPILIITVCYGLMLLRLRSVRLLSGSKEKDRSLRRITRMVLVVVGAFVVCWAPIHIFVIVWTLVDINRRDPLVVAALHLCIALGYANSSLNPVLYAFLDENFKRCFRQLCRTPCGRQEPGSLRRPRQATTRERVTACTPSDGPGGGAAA

Mu-type opioid receptor = Mu-type opioid receptor (Cavia porcellus, UniProt P97266); assay: Inhibitory activity against mu-opioid receptor in guinea pig ileum longitudinal muscle using morphine; type: tissue-based
Sequence of Mu-type opioid receptor (P97266 whole entry): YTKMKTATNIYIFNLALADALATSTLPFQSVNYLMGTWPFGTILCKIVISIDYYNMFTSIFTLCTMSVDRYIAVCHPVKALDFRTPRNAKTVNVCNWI

Sequence of Opioid receptors; delta & kappa (Homo sapiens) (P41143 whole entry, looked up): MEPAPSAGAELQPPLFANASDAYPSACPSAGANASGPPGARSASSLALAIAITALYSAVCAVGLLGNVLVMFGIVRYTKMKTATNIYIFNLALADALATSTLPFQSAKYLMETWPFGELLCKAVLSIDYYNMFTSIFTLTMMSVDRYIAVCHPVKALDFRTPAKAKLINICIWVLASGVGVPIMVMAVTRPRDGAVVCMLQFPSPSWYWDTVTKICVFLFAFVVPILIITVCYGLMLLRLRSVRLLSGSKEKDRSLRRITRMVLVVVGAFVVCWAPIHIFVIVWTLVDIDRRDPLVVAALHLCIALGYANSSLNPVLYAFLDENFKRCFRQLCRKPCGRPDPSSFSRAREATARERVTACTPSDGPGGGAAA
Sequence of Opioid receptors; delta & kappa (Homo sapiens) (P41145 whole entry, looked up): as the sequence (P41145 whole entry, looked up) above

Row | Structure (SMILES) | Ratio [1] | IC50 [2] | Ratio [3] | IC50 [4] | IC50 (Mu-type opioid receptor)
1 | Cn1c2c(c3c1[C@@H]1Oc4c(O)ccc5c4[C@@]14CCN(CC1CC1)[C@H](C5)[C@]4(O)C3)C[C@H]1CN(C(=O)OCc3ccccc3)CC[C@@H]1C2 | 0.2 | 1.6 nM | 0.9 | 9.2 nM | 1.7 nM
2 | Cn1c2c(c3c1[C@@H]1Oc4c(O)ccc5c4[C@@]14CCN(CC1CC1)[C@H](C5)[C@]4(O)C3)C[C@H]1CNCC[C@@H]1C2 | 36 | 40 nM | 40 | 1.1 nM | 1 nM
3 | Oc1ccc2c3c1O[C@H]1c4[nH]c5c(c4C[C@@]4(O)[C@@H](C2)N(CC2CC2)CC[C@]314)C[C@@]1(O)[C@H]2Cc3ccc(O)c4c3[C@@]1(CCN2CC1CC1)[C@H]5O4 [NORBINALTORPHIMINE] | 17 | 181 nM | 22 | – | 8.3 nM
